System: RGCs in WT retina
Assay: MEA recording of photoswitch (QAQ, BENAQ) photosensitization in WT retina
Type: in vivo, mouse
Conditions: WT retina, 3-7 days after intravitreal injection
Procedure: Intravitreal Injections. Before injection, mice were anesthetized with isoflurane (2%) and their pupils were dilated with tropicamide (1%) and phenylephrine (2.5%). Proparacaine (0.5%) was used as a topical analgesic. Genteal was applied under a glass coverslip to keep the cornea lubricated. An incision was made through the sclera below the ora serrata with a 30G needle and ˜1 μl of solution was injected into the vitreous with a blunt-ended 33G Hamilton syringe. After injection, the antibiotic tobramycin (0.3%) was applied to the eye. Final drug concentrations after intravitreal injection were: all-trans retinoic acid (ATRA, 100 nM), liarozole (100 μM), diethylaminobenzaldehyde (DEAB, 20 μM), citral (50 μM), BMS-493 (500 nM), and retinaldehyde (1 μM). The above values correspond to the final concentration in the eye after injecting 1 μl of drug accounting for a 5-fold dilution. An injection of PBS including 1% DMSO was used as vehicle control.
Multi Electrode Array Recordings. For extracellular recordings, a flat-mounted retina was placed ganglion cell layer down onto a 60-electrode Multi-Electrode Array (MEA 1060-2-BC, Multi-Channel Systems). After mounting the retina, photoswitches were applied for 30 min, followed by a 15 min wash. BENAQ was applied at a concentration of 100 μM and QAQ at 300 μM. A solution containing a mixture of neurotransmitter receptor blockers isolated RGCs from synaptic inputs: (in μM) 10 AP4, 40 DNQX, 30 AP5, 10 SR-95531, 50 TPMPA, 10 strychnine, and 50 tubocurarine. Extracellular spikes were high-pass filtered at 200 Hz and digitized at 20 kHz and were counted when exceeding 4 SD from the mean background voltage signal. Typically, each electrode recorded spikes from one to three individual RGCs. Principal component analysis of the spike waveforms was used for sorting spikes generated by individual cells (Offline Sorter, Plexon). Stimulation light was generated from a mercury arc lamp. Unfiltered broad spectrum light was used for BENAQ-treated retinas. Narrow band optical filters (Chroma) were used to deliver alternating intervals of 380 nm and 500 nm for stimulation of QAQ-treated as described previously (5,12). The Photoswitch Index (5) (PI) was established for individual retinas in light/darkness for treatment with BENAQ or in 380 nm/500 nm light for treatment with QAQ (11,12).
Injections. Intravitreal injections: Adult mice and rats were intravitreally injected with drugs or viruses. Before injection, animals were anesthetized with isoflurane (2%) and their pupils were dilated with tropicamide (1%) and phenylephrine (2.5%). Proparacaine (0.5%) was used as a topical analgesic. Genteal was applied under a glass coverslip to keep the cornea lubricated. An incision was made through the sclera below the ora serrata with a 30G needle. Solutions were injected into the vitreous with a blunt-ended 33G Hamilton syringe. After injection, the antibiotic tobramycin (0.3%) was applied to the eye. Final drug concentrations (after 5-fold dilution in the vitreous) were: 100 nM all-trans retinoic acid (ATRA), 100 μM liarozole (24), 20 μM diethylaminobenzaldehyde (DEAB) (28,93), 50 μM citral, 500 nM BMS 493 (85), 1 μM retinaldehyde, and vehicle comprising of 1× phosphate buffered saline (PBS) containing 1% dimethyl sulfoxide (DMSO). Intravitreal injections were performed using AAV2 serotype only. WT and rd1 mice were injected with the RAR-reporter virus or the RARDN virus, at age 1-1.5 month-old. WT and s334ter rats were injected with the RAR-reporter virus at age 3-4 month-old. Final volume of injections was 1-1.5 μL for mice and 5 μL for rats.
Multi Electrode Array Recordings. Flat-mounted retina was placed ganglion cell layer down onto a 60-electrode Multi-Electrode Array (MEA 1060-2-BC, Multi-Channel Systems). After mounting the retina was left to dark adapt for 20 minutes under constant perfusion with oxygenated saline at 34° C. 300 μM QAQ at was applied for 30 min, followed by a 5 min wash. […]

CC1=C(/C=C/C(C)=C/C=C/C(C)=C/C(=O)O)C(C)(C)CCC1 [ATRA, all-trans retinoic acid]
QAQ photosensitization of WT retina, in words: Neither ATRA nor liarozole alone enabled significant QAQ photosensitization | Photoswitch Index (PI) with QAQ (QAQ 300 μM, mean±SEM): 0.1±0.05
